“Also recorded” adds a separate entry of the source.
What was measured:
[1] = tested on: M2 macrophages cultured in TCM; assay: Flow cytometry of markers on M2 macrophages cultured in tumor-conditioned medium (TCM); assay type: cell-based, human
Method: Phenotypic and functional evaluation of β-glucan-treated M2a and β-glucan-treated M2 macrophages in the presence of immunosuppressive cytokines was carried out. M2 or M2a macrophages were prepared as described above. On day 3, tumor-conditioned medium (TCM) was added M2 macrophage cultures to account for 70% of the volume of the culture and then evaluated for CD163 expression and functional activity on day 6. […] M2a macrophages were cultured in IL-4 as described above.
The β-glucan-treated M2a macrophages cultured in IL-4 and M2 macrophages cultured in TCM were first evaluated for CD163 and CD86 expression. CD163 and CD86 were evaluated by flow cytometry and median MFI was calculated for isotype control staining and surface antigen staining and the results are shown in Table 5.
Monocytes or M2 macrophages were prepared as described above. On day 3, TCM was added to account for 70% of the volume of the culture and then evaluated for PD-L1 expression with TCM and then again when co-cultured with CD4 T cells.

CD4 T cells = assay: Mac-CD4 T cell proliferation assay (CFSE dilution); assay type: cell-based, human
M2 macrophages = assay: Flow cytometry of M1/M2 markers on M2 macrophages derived from β-glucan-treated whole blood; assay type: cell-based, human; conditions: for expression of CD163: M2 macrophages, vs vehicle
Method: (§1) CD14^+ monocytes from human whole blood were enriched using Ficoll gradient and magnetic bead separation. Enriched monocytes (5×10^5 cells per mL) were then cultured in either M1-polarizing (XVivo 10 media (Lonza Group) supplemented with 5% autologous serum and 100 ng/mL recombinant human granulocyte macrophage colony-stimulating factor (rhGM-CSF) (R&D Systems) or M2-polarizing (XVivo 10 media supplemented with 10% autologous serum and 50 ng/mL recombinant human macrophage colony-stimulating factor (rhM-CSF) (R&D Systems) conditions for 6 days. In experiments performed to evaluate the effect of β-glucan, whole blood was first incubated with vehicle (sodium citrate buffer) or 25 μg/mL soluble β-glucan for 2 hours at 37° C. and then the monocytes were isolated and differentiated. Morphology was checked before macrophages were harvested for phenotypic analysis. Culture medium of the day 6 macrophage culture (MCM) was collected, spun down to remove contaminated cell pellet and then frozen down for subsequent cytokine analysis by ELISA or used to setup a co-culture with CD3 & CD28-stimulated CD4 T cells (MCM-CD4 T) for evaluation of either surface markers or CD4 T cell proliferation. The macrophages were used to setup a co-culture with CD3 & CD28- or CD3 only-stimulated CD4 T cells (Mac-CD4 T) on day 6 for evaluation of either surface marker modulation or effect on CD4 T cell proliferation. For Mac-CD4 T cell proliferation study, M1 or M2 macrophages were cultured with CD3 & CD28- or CD3 only-stimulated, CFSE-labeled, autologous CD4 T cells at a 1:10 ratio. T cell proliferation was measured at the end of the experiment (day 9-day 11) by flow cytometry, and results are graphically shown as CFSE-dilution peaks. The assessment of CD3-only stimulated T cells was always done on day 11. Quantitative results were reported as the Division Index (the average number of cell divisions a population underwent) calculated for each of the triplicate wells in each of the culture conditions. Culture supernatants of Mac-CD4 T cell co-cultures were collected for subsequent cytokine analysis.
M1 and M2 macrophages from vehicle- or […] whole blood were prepared as described above. […] In addition, surface expression of CD86 was enhanced as well as both protein and mRNA levels of PD-L1 (FIG. 2B).
Expression of a panel of markers was evaluated by flow cytometry for vehicle- and β-glucan-treated, high binder-derived M1 and M2 macrophages (CD163 was evaluated twice).
CD163 and CD86 were evaluated by flow cytometry for vehicle- and β-glucan-treated, low binder-derived M1 and M2 macrophages.

IFN-γ = IFN-γ in supernatants of macrophage and CD4 T cell co-cultures (ELISA); assay type: cell-based, human
Method: as §1
The culture supernatants from the CFSE dilution T-cell proliferation assay (FIG. 2B) were also measured for IFN-gamma levels by ELISA. […] Thus, β-glucan affects M2 to M1 repolarization and drives anti-tumorigenic Th1 polarization.
M2 macrophages from 4 high binders and 4 low binders were prepared and evaluated for their ability to modulate CD4 T cell proliferation. The supernatants from the various CD4 T cell proliferation conditions were measured for IFN-γ by ELISA. Results shown in FIG. 10 are representative from 4 different experiments. Fold change over the IFN-γ levels produced in the co-cultures of vehicle-treated M2 macrophages and CD4 T cells are plotted for each of the 4 donors.

CD33+ MDSC = assay: MDSC in peripheral blood of a case study subject treated with IMPRIME PGG; assay type: in vivo, human; conditions: within hours post-infusion, cycle 8, day 1
Source text: Blood was drawn at various times from a case study subject undergoing treatment with IMPRIME PGG and analyzed for the presence of MDSC. The first blood draw was done pre-infusion, cycle 8, day 1. […] A second blood draw was done post-infusion, cycle 8, day 1. […] The last blood sample was drawn pre-infusion, cycle 8, day 15. The CD33^+ MDSC are again present in the peripheral blood.

[2] = β-glucan-treated M2 macrophages vs vehicle

- CD33+ MDSC in peripheral blood (CD33+ MDSC): transiently disappear
Substance: β(1,6)-[poly-(1,3)-D-glucopyranosyl]-poly-β(1,3)-D-glucopyranose [β-glucan]
- surface expression of PD-L1 ([1]; M2 macrophages cultured in the TCM): higher surface expression
- HLA-DR expression ([1]; M2 macrophages in TCM (data not shown)): higher HLA-DR expression
- expression of PD-L1 ([1]; M2 macrophages in TCM co-cultured with CD4 T cells): increased expression
- CD163 expression ([1]; β-glucan-treated monocytes cultured in TCM): marked down-regulation
- CD4 T cell proliferation (CD4 T cells; M1 macrophages, high binders or low binders, vs vehicle): no differences
- CD4 T cell proliferation (CD4 T cells; M2 macrophages cultured in TCM and M2a macrophages cultured in IL-4, vs vehicle): maintained the ability to enhance
- CD4 T cell proliferation (CD4 T cells; M2 macrophages, absence of exogenous CD28 antibody (CD3 only)): significantly higher ability to enhance
- CD4 T cell proliferation (CD4 T cells; M2 macrophages, high binders, CD3 & CD28-stimulated, vs vehicle): significantly higher ability to enhance
- CD4 T cell proliferation (CD4 T cells; M2 macrophages, low binders, vs vehicle): neither enhanced CD4 T cell proliferation; also recorded: no enhanced proliferation
- CD4 T cell proliferation (CD4 T cells; co-culture with β-glucan-treated M2 macrophages, CD3 and CD28-stimulated): enhance CD4 T cell proliferation
- expression of CD163 (M2 macrophages; high binders): lower expression
- expression of CD163 (M2 macrophages; low binders): remained the same
- mean fluorescence intensity (MFI) of CD163 (M2 macrophages; [2]): downmodulated
- protein and mRNA levels of PD-L1 (M2 macrophages; [2]): enhanced
- surface expression of CD86 (M2 macrophages; [2]): enhanced
- production of IFN-γ (IFN-γ; M2 in TCM / M2a in IL-4 co-cultured with CD4 T cells): significantly increased production
- production of IFN-γ (IFN-γ; M2 macrophage and CD4 T cell co-cultures, high binders): significantly increased production
- production of IFN-γ (IFN-γ; M2 macrophages and CD4 T cells, cell-to-cell contact study): significantly increased production
- production of IFN-γ (IFN-γ; low binder crossed-over with high binder's serum): significantly increased production
- IFN-gamma production (IFN-γ; supernatants of M2 macrophage and CD4 T cell co-culture): concomitant increase
